Source: ChEMBL document CHEMBL1201862, “PubChem BioAssay data set” (2004)
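Test compounds were applied to cells in 96-well plates for 48 hours at 5 doses. GI50: concentration for 50% inhibition of growth.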 Calls of active or inactive are those of the source. Rule as the data show it: active = GI50 up to about 1.1 µM and inactive = higher.

Assays:
Test in all cases: growth of human tumour cells (NCI), 48 h
[1] = tested on: HCC 2998
[2] = tested on: A498
[3] = tested on: HCT-116
[4] = tested on: SW-620
[5] = tested on: SK-MEL-5
[6] = tested on: SN12C
[7] = tested on: LOX IMVI
[8] = tested on: COLO 205
[9] = tested on: RPMI-8226
[10] = tested on: IGROV-1
[11] = tested on: Malme-3M
[12] = tested on: SNB-19
[13] = tested on: UACC-257
[14] = tested on: A549
[15] = tested on: SK-MEL-2
[16] = tested on: K562
[17] = tested on: CCRF-CEM
[18] = tested on: SK-OV-3
[19] = tested on: OVCAR-8
[20] = tested on: OVCAR-3

CC(=O)Nc1ccc2[nH]c(C(=O)N3CC(CCl)c4c3cc(N)c3ccccc43)cc2c1 (stereo not given)
GI50 [1]: < 0.01 µM (active)
GI50 [2]: 0.0176 µM (active)
GI50 [3]: 0.0137 µM (active)
GI50 [4]: 0.0118 µM (active)
GI50 [5]: 0.0115 µM (active)
GI50 [6]: 0.0118 µM (active)
GI50 [7]: < 0.0115 µM (active)
GI50 [8]: 0.0139 µM (active)
GI50 [9]: < 0.0171 µM (active)
GI50 [10]: 0.0143 µM (active)
GI50 [11]: < 0.01 µM (active)
GI50 [12]: < 0.0217 µM (active)
GI50 [13]: 0.0172 µM (active)
GI50 [14]: 0.0128 µM (active)
GI50 [15]: < 0.0143 µM (active)
GI50 [16]: < 0.0163 µM (active)
GI50 [17]: < 0.01 µM (active)
GI50 [18]: 0.0174 µM (active)
GI50 [19]: < 0.0133 µM (active)
GI50 [20]: 0.0189 µM (active)

CCCCCCCCCOCC(COP(=O)([O-])OCC[N+](C)(C)C)OC (stereo not given)
GI50 [1]: > 100 µM (inactive)
GI50 [2]: > 100 µM (inactive)
GI50 [3]: > 100 µM (inactive)
GI50 [4]: > 100 µM (inactive)
GI50 [5]: > 100 µM (inactive)
GI50 [6]: > 100 µM (inactive)
GI50 [7]: > 100 µM (inactive)
GI50 [8]: > 100 µM (inactive)
GI50 [9]: > 100 µM (inactive)
GI50 [10]: > 65.6 µM (inactive)
GI50 [11]: > 100 µM (inactive)
GI50 [12]: > 100 µM (inactive)
GI50 [13]: > 100 µM (inactive)
GI50 [14]: > 100 µM (inactive)
GI50 [15]: > 100 µM (inactive)
GI50 [16]: > 100 µM (inactive)
GI50 [17]: > 100 µM (inactive)
GI50 [18]: > 100 µM (inactive)
GI50 [19]: > 100 µM (inactive)
GI50 [20]: > 100 µM (inactive)

CC(C)NC(=O)OCc1c2c(n(C)c1COC(=O)NC(C)C)-c1ccccc1CC2
GI50 [1]: 13.1 µM (inactive)
GI50 [2]: 23.4 µM (inactive)
GI50 [3]: 10 µM (inactive)
GI50 [4]: 9.2 µM (inactive)
GI50 [5]: 14.4 µM (inactive)
GI50 [6]: 13 µM (inactive)
GI50 [7]: 9.31 µM (inactive)
GI50 [8]: 8.05 µM (inactive)
GI50 [9]: 3.23 µM (inactive)
GI50 [10]: 14 µM (inactive)
GI50 [11]: 5.51 µM (inactive)
GI50 [12]: 14.6 µM (inactive)
GI50 [13]: 15.2 µM (inactive)
GI50 [14]: 23.7 µM (inactive)
GI50 [15]: 14.5 µM (inactive)
GI50 [16]: 4.26 µM (inactive)
GI50 [17]: 2.07 µM (inactive)
GI50 [18]: 15.7 µM (inactive)
GI50 [19]: 12 µM (inactive)
GI50 [20]: 14.2 µM (inactive)

S=c1sc2c(s1)SCCCCSCCCCSc1sc(=S)sc1SCCCCSCCCCS2
GI50 [1]: > 100 µM (inactive)
GI50 [2]: > 100 µM (inactive)
GI50 [3]: > 100 µM (inactive)
GI50 [4]: > 100 µM (inactive)
GI50 [5]: > 100 µM (inactive)
GI50 [6]: > 100 µM (inactive)
GI50 [7]: > 100 µM (inactive)
GI50 [8]: > 100 µM (inactive)
GI50 [9]: > 100 µM (inactive)
GI50 [10]: > 100 µM (inactive)
GI50 [11]: > 100 µM (inactive)
GI50 [12]: > 100 µM (inactive)
GI50 [13]: > 100 µM (inactive)
GI50 [14]: > 100 µM (inactive)
GI50 [15]: > 100 µM (inactive)
GI50 [16]: > 100 µM (inactive)
GI50 [17]: > 100 µM (inactive)
GI50 [18]: > 100 µM (inactive)
GI50 [19]: > 100 µM (inactive)
GI50 [20]: > 100 µM (inactive)

Cc1c2cc[n+](C)cc2c(C)c2c1[nH]c1ccccc12
GI50 [1]: 3.49 µM (inactive)
GI50 [2]: 4.26 µM (inactive)
GI50 [3]: 4.22 µM (inactive)
GI50 [4]: 1.17 µM (inactive)
GI50 [5]: 1.35 µM (inactive)
GI50 [6]: 0.16 µM (active)
GI50 [7]: 10.9 µM (inactive)
GI50 [8]: 0.665 µM (active)
GI50 [9]: 8.49 µM (inactive)
GI50 [10]: 3.44 µM (inactive)
GI50 [11]: 0.855 µM (active)
GI50 [12]: 0.274 µM (active)
GI50 [13]: 5.97 µM (inactive)
GI50 [14]: 0.225 µM (active)
GI50 [15]: 1.11 µM (active)
GI50 [16]: 2.79 µM (inactive)
GI50 [17]: 2.33 µM (inactive)
GI50 [18]: 6.67 µM (inactive)
GI50 [19]: 0.399 µM (active)
GI50 [20]: 2.99 µM (inactive)

CCCCCCc1ccc(O)cc1O [HEXYLRESORCINOL]
GI50 [1]: > 100 µM (inactive)
GI50 [2]: > 100 µM (inactive)
GI50 [3]: 53.5 µM (inactive)
GI50 [4]: > 100 µM (inactive)
GI50 [5]: 31.8 µM (inactive)
GI50 [6]: 66.4 µM (inactive)
GI50 [7]: > 100 µM (inactive)
GI50 [8]: > 100 µM (inactive)
GI50 [9]: 32.1 µM (inactive)
GI50 [10]: 45.5 µM (inactive)
GI50 [11]: 48 µM (inactive)
GI50 [12]: 43.7 µM (inactive)
GI50 [13]: 39.5 µM (inactive)
GI50 [14]: 40.6 µM (inactive)
GI50 [15]: 26.1 µM (inactive)
GI50 [16]: 44.8 µM (inactive)
GI50 [17]: 32 µM (inactive)
GI50 [18]: > 100 µM (inactive)
GI50 [19]: > 69 µM (inactive)
GI50 [20]: 36.4 µM (inactive)

O=C1CNC(=O)N1 [HYDANTOIN]
GI50 [1]: > 1120 µM (inactive)
GI50 [2]: > 1120 µM (inactive)
GI50 [3]: > 1120 µM (inactive)
GI50 [4]: > 1120 µM (inactive)
GI50 [5]: > 1120 µM (inactive)
GI50 [6]: > 1120 µM (inactive)
GI50 [7]: > 1120 µM (inactive)
GI50 [8]: > 1120 µM (inactive)
GI50 [9]: > 1120 µM (inactive)
GI50 [10]: > 1120 µM (inactive)
GI50 [11]: > 1120 µM (inactive)
GI50 [12]: > 1120 µM (inactive)
GI50 [13]: > 1120 µM (inactive)
GI50 [14]: > 1120 µM (inactive)
GI50 [15]: > 1120 µM (inactive)
GI50 [16]: 706 µM (inactive)
GI50 [17]: 681 µM (inactive)
GI50 [18]: > 1120 µM (inactive)
GI50 [19]: > 1120 µM (inactive)
GI50 [20]: > 1120 µM (inactive)
